Test system: DNA repair protein genes
Assay: DNA chip mRNA expression in yeast, DNA repair protein genes (Table 3)
Assay type: cell-based, Saccharomyces cerevisiae S288C
Conditions: incubated two hours, concentrations as in the 1st table
Outline: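 Chemical exposure: 2 h, log-phase S. cerevisiae S288C, YPD, 25° C., dose set to inhibit growth without death. Profiling: mRNA labeled by reverse transcription with Cy3- or Cy5-dUTP, hybridized to whole-genome array. Output: fluorescence ratio against untreated culture.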

Measured: The level of expressed mRNA in the presence of chemical substance/The level of expressed mRNA in the absence of chemical substance

Na2As [(1)]
2.0: yeast gene YGL091C
3.1: yeast gene YGR180C
1.7: yeast gene YMR096W | yeast gene YNL213C
0.9: yeast gene YBL019W | yeast gene YEL037C | yeast gene YGL163C | yeast gene YHR164C | yeast gene YIL036W | yeast gene YIL143C | yeast gene YNL250W | yeast gene YNL312W | yeast gene YPL194W
1.9: yeast gene YML058W
1.1: yeast gene YDR369C | yeast gene YEL019C | yeast gene YGL058W | yeast gene YJR052W | yeast gene YLR233C | yeast gene YMR072W | yeast gene YMR284W | yeast gene YOL043C | yeast gene YPL164C | yeast gene YPR025C
0.8: yeast gene YBR272C | yeast gene YCR014C | yeast gene YDL017W | yeast gene YIL072W | yeast gene YIL153W | yeast gene YIR002C | yeast gene YKL145W | yeast gene YLR103C | yeast gene YML032C
1.0: yeast gene YER162C | yeast gene YGL127C | yeast gene YGR231C | yeast gene YJR046W | yeast gene YNL261W | yeast gene YOR386W
3.4: yeast gene YFL014W
1.3: yeast gene YDR054C
0.7: yeast gene YAR007C | yeast gene YBR073W | yeast gene YGR258C | yeast gene YPL022W
1.4: yeast gene YDL200C | yeast gene YGL249W
2.6: yeast gene YDL059C
1.2: yeast gene YAL015C | yeast gene YLR288C | yeast gene YMR035W | yeast gene YOR005C
2.5: yeast gene YJL026W
